Measurements: US7018796B2, “Preincubation assay methods” (Shionogi & Co., Ltd., priority 2000, dated 2006)

Columns and labels:
[1] = biological target: T1, HCV RNA-dependent RNA polymerase (Hepatitis C virus genotype 1a, UniProt P27958); experiment: Pre-incubation assay method with 3H-UTP (Example 1); format: biochemical
T1 construct: HCV RNA-dependent RNA polymerase is encoded in the NS5B (nonstructural protein 5B) region of HCV; made in house; host or cells: insect cells or E. coli
Method: A HCV RNA-dependent RNA polymerase, template RNA, primer RNA and Mg ion (Mg^2+) are pre-incubated at approximately 25° C. for approximately 1 hour. After that, substrate RNA and a test substance are added to start an enzyme reaction and measure an enzyme activity. IC50 value can be calculated by comparing with an enzyme activity measured in the absence of a test substance as well as the above prior method. An inhibitor can be selected by comparing IC50. An example of a procedure of this method is shown in the later described Example 1.
A cDNA encoding HCV RNA-dependent RNA polymerase was made by use of HCV positive human plasma and HCV RNA-dependent RNA polymerase was expressed using the insect cells or the E. coli. HCV RNA-dependent RNA polymerase in the cell extract was purified by use of an anion exchange chromatography, a heparin affinity chromatography, a polyU affinity chromatography, a cation exchange chromatography and gel filtration chromatography. The purification was performed at 4° C. and Tris buffer (pH 7.5) containing ethylenediaminetetraacetic acid (1 mM), dithiothreitol (10 mM) and glycerol (20%) was used. The enzyme purified was stored at 4° C. until use for the assays.
• 1) The buffer I ^1) (10.5 μl) containing Tris-HCl (100 mM, pH 7.5), MgCl2 (25 mM), dithiothreitol (5 mM), KCl (125 mM) and ethylenediaminetetraacetic acid (5 mM) was transferred to a polypropylene tube and then poly(A)^2) solution (100 μg/ml, 10.5 μl), oligo(U)12 ^3) solution (1 μg/ml, 10.5 μl) and water (8 μl) were added into the tube and mixed. • 2) Next, HCV RNA-dependent RNA polymerase (10.5 μl) was added into the tube and pre-incubated at 25° C. for […]. • 3) The enzyme solution pre-incubated (50 μl) was added to a test compound (5.26 μl/well) dissolved with dimethyl sulfoxide or water in a well of a 96-wells microtiter plate. • 4) Additionally, the buffer II (10.6 μl) containing Tris-HCl (100 mM, pH 7.5), MgCl2 (25 mM), dithiothreitol (5 mM), KCl (125 mM), ethylenediaminetetraacetic acid (5 mM) and UTP • 4) (2.1 μM, 1 μCi ^3H-UTP), was mixed with water (39.4 μl). The mixture (50 μl) was added into the well and mix, and then the enzyme reaction was performed at 25° C. for 30 min. • 5) After enzyme reaction for 30 min, the enzyme reaction was stopped by adding disodium ethylenediaminetetraacetic acid (50 mM, 50 μl). • 6) By use of the cell-harvester, all volume of the enzyme reaction sample was transferred onto a filtermat bound with diethylaminoethyl base (referred to as DEAE-filtermat) and washed twice for 10 sec with sodium phosphate buffer (0.25 M, pH 7.0) and once for 10 sec with de-ionized water. • 7) The DEAE-filtermat was dried at 95° C. for 15 min and transferred into a sample bag with liquid scintillater (10 ml), and then a sample bag was sealed. • 8) The radio activity was measured by a scintillation counter. • 9) The inhibitory rate was calculated from the radioactivity measured (ccpm) as follows. [formula]
The concentration of compound at 50% inhibition (IC50 value) was calculated from the compound concentration used and the inhibitory rate calculated.
When use of a compound at a μg/ml results in A % inhibition and use of a compound at β μg/ml results in B % inhibition on condition of A≧50>B the IC50 value is obtained by the calculation as follows. IC50 (μg/ml)=10^[(50−B)/(A−B)×(log^α^−log^β^)+log^β^]

[2] = biological target: T1, HCV RNA-dependent RNA polymerase; experiment: DIG-UTP assay without radioisotope-labeled substrate, without pre-incubation (Example 2); format: biochemical; settings: no pre-incubation, I-1 0.5 μg/ml, 3′-dUTP 0.7 μM, A 100 μg/ml, B 50 μg/ml, C 25 μg/ml
Method: After mixing by a plate mixer, the solution was pre-incubated at 25° C. for 1 hr. • 10) On the other hand, the buffer I (10 μl) was transferred into another tube, and UTP (1 μM, 10 μl), DIG-UTP (300 μM, 1 μl), water (24 μl) and a test compound dissolved with dimethyl sulfoxide or water (5 μl) were added to the tube and mixed calmly. Concentrations of the compounds used were as follows.
• 11) The mixed solution (50 μl/well) described in 10) was transferred into each well after the pre-incubation described in 9), mixed by a plate mixer and then incubated at 25° C. for 1 hr. • 12) When the enzyme reaction was in 1 hr, the enzyme reaction was stopped by adding ethylenediaminetetraacetic acid (0.1 M, 50 μl/well). • 13) The plate was washed twice with PBS (200 μl/well) after end of the enzyme reaction. • 14) Next, alkaline phosphatase-labeled anti-DIG antibody (3 U/ml, 100 μl/well) diluted 250-fold with PBS containing skim milk (0.5%) was transferred each well. After mixing by a plate mixer, immuno-reaction was performed at 25° C. for 1 hr. • 15) Each well was washed twice with PBS (200 μl/well) containing skim milk (0.05%) and then washed twice with PBS (200 μl/well). • 16) Substrate solution (150 μl/well) for alkaline phosphatase was prepared by mixing of Tris-HCl (100 mM, pH 9.5), NaCl (100 mM), MgCl2 (5 mM) and p-nitrophenyl phosphate (6 mM) just before use. The substrate solution was transferred into each well of the plate, mixed by a plate mixer and then incubated at 25° C. for 1 hr until the color appears in the solution. • 17) The plate was set on a plate reader and the absorbance was measured at 405 nm. • 18) The inhibitory rate was calculated from the optical density (unit; OD) measured as follows. [formula]
Table 4 summarized the comparison between inhibitory rates in the assay with the pre-incubation and those in the assay without the pre-incubation.

[3] = with pre-incubation, I-1 0.5 μg/ml, 3′-dUTP 0.7 μM, A 100 μg/ml, B 50 μg/ml, C 25 μg/ml

T1 sequence (P27958 2421-3011): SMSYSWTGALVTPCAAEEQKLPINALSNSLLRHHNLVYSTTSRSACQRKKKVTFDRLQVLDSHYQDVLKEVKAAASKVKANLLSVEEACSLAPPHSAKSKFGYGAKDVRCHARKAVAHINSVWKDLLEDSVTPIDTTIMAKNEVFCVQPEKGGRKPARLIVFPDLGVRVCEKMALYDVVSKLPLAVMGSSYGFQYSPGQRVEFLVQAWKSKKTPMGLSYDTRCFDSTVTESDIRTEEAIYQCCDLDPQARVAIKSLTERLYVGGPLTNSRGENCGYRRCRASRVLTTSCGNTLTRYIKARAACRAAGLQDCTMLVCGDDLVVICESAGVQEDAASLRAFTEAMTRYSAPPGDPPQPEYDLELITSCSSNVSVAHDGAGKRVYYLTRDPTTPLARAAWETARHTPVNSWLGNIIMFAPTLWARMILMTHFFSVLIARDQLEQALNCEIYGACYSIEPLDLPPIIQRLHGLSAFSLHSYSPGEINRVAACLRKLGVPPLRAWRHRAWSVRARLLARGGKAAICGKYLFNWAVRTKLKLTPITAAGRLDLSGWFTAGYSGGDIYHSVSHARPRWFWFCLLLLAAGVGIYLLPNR

Compound	inhibition at 100 µg/mL ([1]; 100 μg/ml, pre-incubation 25° C. 60 min, method of Example 1, read-out: Inhibition rate at a concentration of 100 μg/ml)	IC50 ([1]; pre-incubation 25° C. 60 min, method of Example 1)	Judgement in the pre-incubation method (positive / negative) ([1]; with pre-incubation)	inhibition at 0.5 µg/mL ([1]; with pre-incubation, I-1 0.5 μg/ml, 3′-dUTP 0.7 μM, A 100 μg/ml, B 50 μg/ml, C 25 μg/ml, read-out: Inhibitory rate (Table 2))	inhibition at 0.5 µg/mL ([2]; read-out: Inhibitory rate, treatment of pre-incubation −)	Inhibitory rate (Table 2) [1, 3]	Enzyme inhibition rate in a pre-incubation assay method (FIG. 5) ([1]; with pre-incubation, same concentrations as)	Inhibitory rate, treatment of pre-incubation − [2]
O=C(O)/C(O)=C/C(=O)c1cccc(O)c1 [Compound I-1]	> 99%	1.92 µM	positive result	62%	59%	–	–	–
O=c1ccn([C@@H]2O[C@H](COP(=O)(O)OP(=O)(O)OP(=O)(O)O)C[C@H]2O)c(=O)[nH]1 [3′-dUTP, 3′-deoxyuridine triphosphate]	–	–	–	–	–	79%	does not change	44%
Cc1oc(-c2ccccc2)nc1CCOc1ccc(C=C2C(=O)NC(=O)NC2=O)cc1 [Compound A]	–	–	negative	–	–	19%	–	87%
CCCCC1=N/C(=C\c2ccccc2OCC(=O)O)C(=O)N1Cc1ccc(-c2ccccc2-c2nnn[nH]2)cc1 [Compound C]	–	–	negative result	–	–	2%	–	87%
O=C1NC(=O)C(=Cc2ccc(OCCc3cccc4ccccc34)cc2)C(=O)N1 [Compound B]	–	–	negative	–	–	1%	–	28%
